Consider one compound from publication PMC3214022, “Plasmodium falciparum Parasites Are Killed by a Transition State Analogue of Purine Nucleoside Phosphorylase in a Primate Animal Model” (PLoS ONE, 2011).

For one data set, the system named is P. falciparum strain FVO. The data set can be described thus: 72 h in vitro growth inhibition test, PicoGreen DNA quantitation. The conditions noted are these: Plasmodium falciparum, chloroquine/quinine resistant strain FVO, 1% hematocrit, 10 µM hypoxanthine. It counts as cell-based. The procedure:
(§1) Briefly, synchronous culture in the schizont stage was cultured for 24 h in media containing 10 µM of hypoxanthine. Ring stage parasite cultures (200 µl per well, with 1% hematocrit and 1% parasitaemia) were then grown for 72 h in the presence of increasing concentrations of the drug. After 72 h in culture, parasite viability was determined by DNA quantitation using PicoGreen (Invitrogen) as described by Quashie and colleagues. The half-maximum inhibitory concentration (IC50) calculation was performed with Origin software (OriginLab) using a nonlinear regression curve fitting. Half-maximum inhibitory concentration (IC50) is the concentration of inhibitor needed to kill 50% of parasites.

The next data set deals with P. falciparum strain 3D7. The description is as above. The class given is cell-based. The conditions noted are these: Plasmodium falciparum, 3D7, 72 h. The procedure: as §1
The next data set deals with P. falciparum strain Dd2. The description is as above. It counts as cell-based. The conditions noted are these: Plasmodium falciparum, DD2, 72 h. The procedure:
as §1

Another data set can be described thus: in vivo. Also noted: species or system Aotus lemurinus lemurinus. The procedure:
Samples from blood cells, plasma and media were extracted and analyzed in duplicate. […] Samples were incubated for 20 min at 4 °C and neutralized with 5 M KOH at 10∶1 (v/v, HClO4/KOH) for 20 min at 4 °C. Plates were centrifuged (10 min at 4,000 rpm, 4°C) and supernatants were filtered through a MultiScreen® Filter Plate with Ultracel®-10 Membrane (Millipore). Metabolite and inhibitor levels were quantified by UPLC/MS/MS using a Xevo TQ mass spectrometer (Waters). […] Quantitative determination was performed in ESI positive-ion mode using multiple-reaction monitoring (MRM) mode. The ESI capillary voltage was 0.3 kV, source temperature was set at 150 °C and desolvation temperature at 450 °C. Data acquisition and analysis were carried out by MassLynx V4.1 and QuanLynx software (Waters). The concentration of the metabolites was calculated by interpolation of the observed analyte/internal standard peak-area ratio with the corresponding calibration curve.
Laboratory bred Aotus lemurinus lemurinus monkeys (0.75–0.89 kg) were maintained as described. […] Blood samples were collected before the treatment started (t = 0), 0.05 h, 0.5 h, 1 h, 2 h, 6 h, 24 h, 48 h, and 6, 12 and 18 days after the first dose from each monkey and processed as described below. Pharmacokinetic parameters were calculated using PKSolver. For efficacy studies, Aotus monkeys were inoculated intravenously with 5×10^6 parasites of the FVO strain of P. falciparum in an approved treatment protocol. […] Parasitaemia was determined by Giemsa-stained thick blood smears prepared daily from the marginal ear vein [41]. Blood samples were collected from each monkey and transferred to tubes containing lithium heparin, centrifuged and both plasma and blood cells were frozen at −80 °C until analysis. Animals received a physical examination and blood chemistry profiles were monitored after treatment as described previously. Any monkey not responding appropriately to treatment was cured of its infection with mefloquine (40 mg kg^−1). […] The day of clearance is defined as the first of three consecutive days in which the thick blood films are parasite negative. The day of recrudescence is the first of three consecutive days of positive thick blood films after a period of clearance. Suppression is defined as a transient decrease in the parasite count post-treatment without clearance.

The structures appear in SMILES notation.

One may read the IC50 as the concentration needed to halve the response being measured. By bioavailability is commonly meant the share of a dose that reaches the circulation, judged against a reference dose that is usually intravenous. As a reminder, the half-life is the time in which the quantity being followed falls by half. For orientation: Cmax means the maximum level reached in the sampled fluid or tissue. On to `Nc1nc2c(CN3CC(O)C(CO)C3)c[nH]c2c(=O)[nH]1` (stereo not shown) [BCX4945, 4′-deaza-1′-aza-2′-deoxy-1′-(9-methylene)-Immucillin-G], for which the IC50 with P. falciparum strain FVO worked out at 202 ± 27 nM; with P. falciparum strain 3D7, 164 ± 20 nM; with P. falciparum strain Dd2, 130 ± 22 nM. The same compound gave a bioavailability in “in vivo” (Aotus lemurinus lemurinus) of 28%. In addition, the concentration at 24 h in the data set “in vivo” (Aotus lemurinus lemurinus, po) was around 1200 nM. In addition, in the data set “in vivo” (Aotus lemurinus lemurinus, po), the “plasma concentration within 1 h of the first dose” value is “approximately 6 µM”. The half-life was 1.2 to 1.3 h in the data set “in vivo” (monkey); 1.3 h in the data set “in vivo” (monkey, iv, 10 mg/kg); 1.2 h in “in vivo” (monkey, po, 50 mg/kg). This compound also yielded a Cmax in “in vivo” (monkey, po, 50 mg/kg) of at most 15000 nM.
